The conditions of series [1]: for kinetic solubility: 42.5 mg in 2.00 mL purified/de-ionized water, agitated at room temperature for one minute, filtered, gravimetric evaluation of residue. Here is the method: (§1) 42.5 mg of the anhydrous form of the crystalline 5-methyl-(6S)-tetrahydrofolic acid L-valine ethyl ester salt (Form A) according to Example 2 was weighed into a 7 mL glass vial with a screw cap. 2.00 mL of purified/de-ionized water (for instance water for chromatography) was added to the solid using an adjustable volumetric pipette. The mixture was vigorously agitated at room temperature for one minute. […] The dilute suspension was filtered by centrifugal filtration and 1.50 mL of the aqueous solution was transferred into a tared glass vial (about 10 mL volume). The water was evaporated in an air dryer at 40° C. for about 15 hours, then at 50° C. for about eight hours, subsequently drying was completed at 50° C. under vacuum (10 to 20 mbar) for about 13 hours. The solubility was determined by gravimetric evaluation of the solid residue.
as §1, with “calcium” for “L-valine ethyl ester”, “salt” for “salt (Form A) according to Example 2”, “The” for “The dilute”

For series [2] the following is noted: relative humidity range from 0 to 55%; RH scans 5% per hour. From the text:
DVS measurements are typically performed with an SPS11-100n “Sorptions Prüfsystem” from ProUmid (formerly “Projekt Messtechnik”), August-Nagel-Str. 23, 89079 Ulm (Germany).
23, 89079 Ulm (Germany). For relative humidity (RH) scans, change rates of 5% per hour were used.

For series [3] the following is noted: cited from earlier work; for aqueous solubility: at room temperature, known values for calcium salt polymorphs.

In the case of “5-methyl-(6S)-tetrahydrofolic acid L-valine ethyl ester salt”, the kinetic solubility in series [1] is 12.5 mg of 5-methyl-(6S)-tetrahydrofolic acid per mL. In addition, the “improvement of kinetic solubility versus the known metastable Form 1 of the calcium salt” value in series [1] (versus calcium salt Form 1) is on record as “about 50%”. Besides, the “change of relative sample mass (DVS)” value in series [2] was “less than 1%”.

For the molecule “5-methyl-(6S)-tetrahydrofolic acid calcium salt”, in series [1], the kinetic solubility is on record as 9.0 mg of 5-methyl-(6S)-tetrahydrofolic acid per mL. Also, the “change of relative sample mass (DVS)” value in series [2] is “about 6%”.

For the molecule `CN1c2c(nc(N)[nH]c2=O)NC[C@@H]1CNc1ccc(C(=O)N[C@@H](CCC(=O)O)C(=O)O)cc1` [5-methyl-(6S)-tetrahydrofolic acid], the “solubility in water (in words)” value in series [3] (water) is “poorly soluble”.

For `CN1c2c([nH]c(N)nc2=O)NC[C@@H]1CNc1ccc(C(=O)N[C@@H](CCC(=O)[O-])C(=O)[O-])cc1.[Ca+2]` [calcium salt (Form Ill), calcium salt of 5-methyl-(6S)-tetrahydrofolic acid], the aqueous solubility entry in series [3] is listed as “about 2.5 mg/ml”. Regarding `CN1c2c([nH]c(N)nc2=O)NC[C@@H]1CNc1ccc(C(=O)N[C@@H](CCC(=O)[O-])C(=O)[O-])cc1.[Ca+2]` [metastable Form I, calcium salt of 5-methyl-(6S)-tetrahydrofolic acid], the aqueous solubility result in series [3] was “about 10 mg/ml”.
